Data taken from paper PMC10893103, “Cyclodextrin-Enabled Enantioselective Complexation Study of Cathinone Analogs” (Molecules, 2024).

assay: Affinity capillary electrophoresis (ACE), pH 7.4; details: 30 mM phosphate buffer pH 7.4, 25 °C, 15 kV
Description: To assess the CD complex formation capability of the five cathinone derivatives, we devised a screening ACE method tailored to closely mimic physiological conditions. In a preliminary study, the ACE conditions were optimized regarding the type, pH, and concentration of the background electrolyte, the applied voltage, and the injection parameters. […] In order to avoid high Joule heat generation, sufficiently low voltage should be used; thus, after registering the Ohm plot (I-U plot), it was set to 15 kV. Throughout our ACE measurements, corrections for viscosity and ionic strength were systematically implemented to ensure precise determination of complex stability constants.
The CE experiments were performed on a HP ^3DCE and on an Agilent 7100 instrument (Agilent Technologies, Waldbronn, Germany) equipped with a photodiode array detector and the Chemstation software for data handling. Untreated fused silica capillaries (50 µm id, 48.5 cm total, 40 cm effective length) were purchased from Agilent. Conditioning of new capillary was conducted by flushing with 1 M NaOH followed by 0.1 M NaOH and water for 30 min each. Prior to all runs, the capillary was preconditioned by rinsing with BGE (2 min). The temperature of the capillary was set to 25 °C. UV detection was performed at 215 nm, and 15–25 kV voltage was applied. Samples were injected hydrodynamically (150 mbar·sec, optimized in the 50–500 mbar·sec range). The CE-pH measurements were carried out applying 25 kV voltage and 200 mbar·sec injection.
The background electrolyte of the CE-pH measurements contained 25 mM Na2HPO4 and 25 mM Na2B4O7, and the appropriate pH was adjusted with hydrochloric acid. During the ACE measurements, 30 mM phosphate buffer pH 7.4 (30 mM Na2HPO4—NaOH) was used. The running buffer was 20 mM acetic acid adjusting with 1 M Tris the pH to 4.5 during the chiral screening experiments. The BGEs contained CDs at various concentrations (0.25–20 mM) in the ACE experiments and 1-5-10 mM in the chiral method optimization experiments.
Stock solutions of each cathinone analog (mephedrone, flephedrone, 4-MEC, butylone, and MDPV) were prepared separately in methanol (1 mg/ml), and appropriate dilutions with water were used to prepare sample solutions for the CE-pH titration and for the ACE studies applying DMSO as EOF marker, while their mixture was used during the chiral separation studies.
The simplest way to determine the mobility is from the migration times (tmax) read from the electropherograms from which the apparent mobility could be calculated, but more accurate mobility values could be obtained by the determination with the Haarhoff–van der Linde (HVL) function based on Equation (2). (2) HVLδ(t;a0,a1,a2,a3δ)=a0/a2a3δ2πexp[−1/2(t−a1/a2)^2]/1/exp(a3δ)−1+1/2[1+erf(t−a1/2a2)] where a0 is the area of the HVL function, a1 is the position of the Gaussian component, a2 is the standard deviation of the Gaussian component, and a3δ is the peak shape distortion. The application of the HVL function is necessary in the case of accurate ACE measurements because, in several cases, the peaks are distorted due to the complex formation, which makes reading the migration times and calculating the mobility more difficult and imprecise.
The most popular technique for quantifying the analyte–ligand interaction with CE is mobility shift ACE.

| Molecule | 4-MEC–CD complex stability constant, Kstab2 (second migrating enantiomer) | 4-MEC–CD complex stability constant, Kstab/Kstab1 (unresolved or first migrating enantiomer) | Butylone–CD complex stability constant, Kstab2 (second migrating enantiomer) | Butylone–CD complex stability constant, Kstab/Kstab1 (unresolved or first migrating enantiomer) | Flephedrone–CD complex stability constant, Kstab2 (second migrating enantiomer) | Flephedrone–CD complex stability constant, Kstab/Kstab1 (unresolved or first migrating enantiomer) | MDPV–CD complex stability constant, Kstab2 (second migrating enantiomer) | MDPV–CD complex stability constant, Kstab/Kstab1 (unresolved or first migrating enantiomer) | Mephedrone–CD complex stability constant, Kstab2 (second migrating enantiomer) | Mephedrone–CD complex stability constant, Kstab/Kstab1 (unresolved or first migrating enantiomer) |
| --- | --- | --- | --- | --- | --- | --- | --- | --- | --- | --- |
| CO[C@@H]1[C@@H](OC)[C@H]2O[C@H]3[C@H](OC)[C@@H](OC)[C@@H](O[C@H]4[C@H](OC)[C@@H](OC)[C@@H](O[C@H]5[C@H](OC)[C@@H](OC)[C@@H](O[C@H]6[C@H](OC)[C@@H](OC)[C@@H](O[C@H]7[C@H](OC)[C@@H](OC)[C@@H](O[C@H]8[C@H](OC)[C@@H](OC)[C@@H](O[C@H]9[C@H](OC)[C@@H](OC)[C@@H](O[C@@H]1[C@@H](COS(=O)(=O)O)O2)O[C@@H]9COS(=O)(=O)O)O[C@@H]8COS(=O)(=O)O)O[C@@H]7COS(=O)(=O)O)O[C@@H]6COS(=O)(=O)O)O[C@@H]5COS(=O)(=O)O)O[C@@H]4COS(=O)(=O)O)O[C@@H]3COS(=O)(=O)O [ODMS-γ-CD, octakis-(2,3-O-dimethyl, 6-O-sulfo)-γ-CD] | 125 ± 20 M⁻¹ | 110 ± 15 M⁻¹ | 165 ± 25 M⁻¹ | 145 ± 15 M⁻¹ | 70 ± 10 M⁻¹ | 90 ± 20 M⁻¹ | 110 ± 45 M⁻¹ | 105 ± 7 M⁻¹ | 140 ± 20 M⁻¹ | 200 ± 35 M⁻¹ |
| CO[C@@H]1[C@@H](OC)[C@H]2O[C@H]3[C@H](OC)[C@@H](OC)[C@@H](O[C@H]4[C@H](OC)[C@@H](OC)[C@@H](O[C@H]5[C@H](OC)[C@@H](OC)[C@@H](O[C@H]6[C@H](OC)[C@@H](OC)[C@@H](O[C@H]7[C@H](OC)[C@@H](OC)[C@@H](O[C@@H]1[C@@H](COS(=O)(=O)O)O2)O[C@@H]7COS(=O)(=O)O)O[C@@H]6COS(=O)(=O)O)O[C@@H]5COS(=O)(=O)O)O[C@@H]4COS(=O)(=O)O)O[C@@H]3COS(=O)(=O)O [HxDMS-α-CD, hexakis-(2,3-O-dimethyl, 6-O-sulfo)-α-CD] | – | 55 ± 15 M⁻¹ | – | 550 ± 95 M⁻¹ | – | 105 ± 12 M⁻¹ | – | 220 ± 30 M⁻¹ | – | 270 ± 110 M⁻¹ |
| OC[C@H]1O[C@@H]2O[C@H]3[C@H](O)[C@@H](O)[C@@H](O[C@H]4[C@H](O)[C@@H](O)[C@@H](O[C@H]5[C@H](O)[C@@H](O)[C@@H](O[C@H]6[C@H](O)[C@@H](O)[C@@H](O[C@H]7[C@H](O)[C@@H](O)[C@@H](O[C@H]8[C@H](O)[C@@H](O)[C@@H](O[C@H]1[C@H](O)[C@H]2O)O[C@@H]8CO)O[C@@H]7CO)O[C@@H]6CO)O[C@@H]5CN1CCCCC1)O[C@@H]4CO)O[C@@H]3CO [PIP-β-CD, 6-monodeoxy-6-piperidine-β-CD] | – | < 10 M⁻¹ | – | < 10 M⁻¹ | – | < 10 M⁻¹ | – | < 10 M⁻¹ | – | < 10 M⁻¹ |
| sulfopropylated-β-CD [SP-β-CD (DS~2)] | – | 440 ± 25 M⁻¹ | – | 710 ± 45 M⁻¹ | – | 140 ± 12 M⁻¹ | – | – | – | 390 ± 20 M⁻¹ |
| randomly methylated-β-CD [RAME-β-CD] | – | 140 ± 7 M⁻¹ | 350 ± 15 M⁻¹ | 325 ± 15 M⁻¹ | – | 40 ± 5 M⁻¹ | – | 585 ± 35 M⁻¹ | – | 100 ± 5 M⁻¹ |
| sulfated-β-CD [S-β-CD] | – | – | – | – | – | 860 ± 100 M⁻¹ | – | – | – | – |
| carboxymethylated-β-CD [CM-β-CD] | 725 ± 45 M⁻¹ | 620 ± 40 M⁻¹ | – | – | 225 ± 10 M⁻¹ | 190 ± 10 M⁻¹ | – | – | 615 ± 25 M⁻¹ | 610 ± 30 M⁻¹ |
| O=C(O)CCSC[C@H]1O[C@@H]2O[C@H]3[C@H](O)[C@@H](O)[C@@H](O[C@H]4[C@H](O)[C@@H](O)[C@@H](O[C@H]5[C@H](O)[C@@H](O)[C@@H](O[C@H]6[C@H](O)[C@@H](O)[C@@H](O[C@H]7[C@H](O)[C@@H](O)[C@@H](O[C@H]1[C@H](O)[C@H]2O)O[C@@H]7CSCCC(=O)O)O[C@@H]6CSCCC(=O)O)O[C@@H]5CSCCC(=O)O)O[C@@H]4CSCCC(=O)O)O[C@@H]3CSCCC(=O)O [SAX, hexakis-(6-deoxy-6-(2-carboxyethyl)thio)-α-CD] | – | – | – | – | – | – | – | – | – | 530 ± 45 M⁻¹ |
| dimethylated-β-CD [DIME-β-CD] | 270 ± 25 M⁻¹ | 210 ± 20 M⁻¹ | – | – | – | 60 ± 6 M⁻¹ | – | – | – | 150 ± 15 M⁻¹ |
| NC[C@H]1O[C@@H]2O[C@H]3[C@H](O)[C@@H](O)[C@@H](O[C@H]4[C@H](O)[C@@H](O)[C@@H](O[C@H]5[C@H](O)[C@@H](O)[C@@H](O[C@H]6[C@H](O)[C@@H](O)[C@@H](O[C@H]7[C@H](O)[C@@H](O)[C@@H](O[C@H]8[C@H](O)[C@@H](O)[C@@H](O[C@H]1[C@H](O)[C@H]2O)O[C@@H]8CO)O[C@@H]7CO)O[C@@H]6CO)O[C@@H]5CO)O[C@@H]4CO)O[C@@H]3CO [MA-β-CD, mono-(6-N-amino-6-deoxy)-β-CD] | – | 180 ± 40 M⁻¹ | 340 ± 50 M⁻¹ | 140 ± 25 M⁻¹ | – | 425 ± 80 M⁻¹ | 200 ± 30 M⁻¹ | 350 ± 60 M⁻¹ | – | 225 ± 35 M⁻¹ |
| OC[C@H]1O[C@@H]2O[C@H]3[C@H](O)[C@@H](O)[C@@H](O[C@H]4[C@H](O)[C@@H](O)[C@@H](O[C@H]5[C@H](O)[C@@H](O)[C@@H](O[C@H]6[C@H](O)[C@@H](O)[C@@H](O[C@H]7[C@H](O)[C@@H](O)[C@@H](O[C@H]1[C@H](O)[C@H]2O)O[C@@H]7CO)O[C@@H]6CO)O[C@@H]5CO)O[C@@H]4CO)O[C@@H]3CO [α-CD] | – | 30 ± 5 M⁻¹ | – | 40 ± 5 M⁻¹ | – | 40 ± 4 M⁻¹ | 50 ± 5 M⁻¹ | 40 ± 6 M⁻¹ | – | 30 ± 4 M⁻¹ |
